Like-named read-outs stand apart in the source and are kept apart here.
How the values were obtained:
[1] = system: barnyardgrass (Echinochloa oryzicola vasing); assay: Growth inhibition of barnyardgrass in paddy soil pots, application under submerged condition, visual rating (observed value) and Colby expected value; type: in vivo; details: for inhibition at 225 g/ha: read-out: Growth inhibition rate (%) Observed, 2.25 g/a
Source text: (§1) When the herbicidal activity in a case where two active ingredients are combined, is larger than the simple sum of the respective herbicidal activities of the two active ingredients (the expected activity), it is called a synergistic effect. The activity expected by the combination of two active ingredients can be calculated as follows (Colby S. R., “Weed”, vol. 15, p. 20-22, 1967). E=p+q−(p×q÷100) where p: growth inhibition rate when treated with x (g/a) of herbicide X,
(§2) q: growth inhibition rate when treated with y (g/a) of herbicide Y,
(§3) E: growth inhibition rate expected when treated with x (g/a) of herbicide X and y (g/a) of herbicide Y.
(§4) Namely, when the actual growth inhibition rate (observed value) is larger than the growth inhibition rate by the above calculation (expected value), the activity by the combination can be regarded as showing a synergistic effect.
Paddy field soil was put into a 1/10,000 are pot, and seeds of barnyardgrass (Echinochloa oryzicola vasing) were sown and left to stand under an irrigated condition with a water depth of 3.5 cm. When barnyardgrass reached 2.0 to 2.5 leaf stage, wettable powders of compound A2 and compound (B1.1) were, respectively, diluted with water and applied under submerged condition so that the active ingredients became the prescribed amounts, respectively. The state of growth was visually observed 21 days after application, and the growth inhibition rate (%) evaluated in accordance with the following evaluation standard (observed value) and the growth inhibition rate (%) calculated by the above-mentioned Colby method (expected value) are shown in Table 1.
(§5) Growth inhibition rate (%)=0% (equivalent to the non-treated area) to 100% (complete kill)
(§6) Paddy field soil was put into a 1/10,000 are pot, and seeds of barnyardgrass (Echinochloa oryzicola vasing) were sown and left to stand under an irrigated condition with a water depth of 3.5 cm. When barnyardgrass reached 2.0 to 2.5 leaf stage, wettable powders of compound A2 and compound (B2.1) were, respectively, diluted with water and applied under submerged condition so that the active ingredients became the prescribed amounts, respectively. The state of growth was visually observed 21 days after application, and evaluation and calculation were carried out in the same manner as in the above Test Example 1.
as §6, with “leaf stage, a wettable powder” for “leaf stage, wettable powders”, “a wettable powder of compound” for “stage, wettable powders of compound”, “A2 and an emulsifiable concentrate of compound (B3.1)” for “A2 and compound (B2.1)”, “of compound (B3.1) were, respectively,” for “and compound (B2.1) were, respectively,”
as §6, with “(B4.1)” for “(B2.1)”
Paddy field soil was put into a 1/10,000 are pot, and seeds of barnyardgrass (Echinochloa oryzicola vasing) were sown and left to stand under an irrigated condition with a water depth of 3.5 cm. […]

[2] = system: Japanese bulrush (Scirpus juncoides); assay: Growth inhibition of Japanese bulrush in paddy soil pots, application under submerged condition, visual rating and Colby expected value; type: in vivo
Source text: as §1, §2, §3, §4, §5
(§7) Paddy field soil was put into a 1/10,000 are pot, and seeds of Japanese bulrush (Scirpus juncoides) were sown and left to stand under an irrigated condition with a water depth of 3.5 cm. When Japanese bulrush reached 2.3 to 2.6 leaf stage, a wettable powder of compound A2 and granules of compound (B7.1) were, respectively, diluted with water and applied under submerged condition so that the active ingredients became the prescribed amounts, respectively. The state of growth was visually observed 10 days after application, and evaluation and calculation were carried out in the same manner as in the above Test Example 1.
as §7, with “an emulsifiable concentrate” for “granules”, “(B3.1)” for “(B7.1)”
(§8) Paddy field soil was put into a 1/10,000 are pot, and seeds of Japanese bulrush (Scirpus juncoides) were sown and left to stand under an irrigated condition with a water depth of 3.5 cm. When Japanese bulrush reached 2 leaf stage, wettable powders of compound A2, C2 and C4 and granules of compound C6 were, respectively, diluted with water and applied under submerged condition so that the active ingredients became the prescribed amounts, respectively.
Paddy field soil was put into a 1/10,000 are pot, and seeds of Japanese bulrush (Scirpus juncoides) were sown and left to stand under an irrigated condition with a water depth of 3.5 cm. When Japanese bulrush reached 2 leaf stage, wettable powders of compound A2, C2 and C4 and granules of compound C6 were, respectively, diluted with water and applied under submerged condition so that the active ingredients became the prescribed amounts, respectively. The state of growth was visually observed 19 days after application, and the growth inhibition rate (%) evaluated in the same manner as in the above Test Example 1 (observed value) and the growth inhibition rate (%) calculated by the above-mentioned Colby method (expected value) are shown in Tables 36, 37 and 38.
as §8, with “3” for “2”, “A2” for “A2, C2”, “and” for “and C4 and granules of”, “(D2.2)” for “C6”, “respectively. […]” for “respectively.”

[3] = 0.5 g/a, 2 leaf stage, 19 days after application, Test Example 33
[4] = 1.0 g/a, 2 leaf stage, 19 days after application, Test Example 33
[5] = 1.5 g/a, 2 leaf stage, 19 days after application, Test Example 34
[6] = 2.0 g/a, 2 leaf stage, 19 days after application, Test Example 33
[7] = 3.75 g/a, 2 leaf stage, 19 days after application, Test Example 34
[8] = 10 g/a, 2 leaf stage, 19 days after application, Test Example 34

## CCNc1nc(NCC)nc(SC)n1 [Compound (B5.1), simetryn]
[1]; Echinochloa oryzicola, soil, 504 h, read-out: Growth inhibition rate (%) Observed, 1.69 g/a, 1.0 to 3.0 leaf stage, 21 days after application
  inhibition at 169 g/ha: 3%
[1]; Echinochloa oryzicola, soil, 504 h, 2.0 to 2.5 leaf stage, 21 days after application
  inhibition at 225 g/ha: 2%
[1]; Echinochloa oryzicola, soil, 504 h, read-out: Growth inhibition rate (%) Observed, 3.38 g/a, 1.0 to 3.0 leaf stage, 21 days after application
  inhibition at 338 g/ha: 10%
[1]; Echinochloa oryzicola, soil, 504 h, read-out: Growth inhibition rate (%) Observed, 4.5 g/a, 2.0 to 2.5 leaf stage, 21 days after application
  inhibition at 450 g/ha: 5%
[1]; Echinochloa oryzicola, soil, 696 h, 2.4 to 3.2 leaf stage, 29 days after application, Test Example 45
  inhibition at 225 g/ha: 5%
[2]; Schoenoplectiella juncoides, soil, 696 h, read-out: Growth inhibition rate (%) Observed
  inhibition at 450 g/ha: 25%

## CC(C)N1C(=O)c2ccccc2NS1(=O)=O [Compound (B7.1), bentazone]
[1]; Echinochloa oryzicola, soil, 504 h, 33 g/a, 3.0 to 3.3 leaf stage, 21 days after application, read-out: Growth inhibition rate (%) Observed
  inhibition at 3300 g/ha: 0%
[1]; Echinochloa oryzicola, soil, 504 h, 44 g/a, 3.0 to 3.3 leaf stage, 21 days after application, read-out: Growth inhibition rate (%) Observed
  inhibition at 4400 g/ha: 0%
[2]; Schoenoplectiella juncoides, soil, 240 h, 4.13 g/a, 2.3 to 2.6 leaf stage, 10 days after application, read-out: Growth inhibition rate (%) Observed
  inhibition at 413 g/ha: 10%
[2]; Schoenoplectiella juncoides, soil, 240 h, 8.25 g/a, 2.3 to 2.6 leaf stage, 10 days after application, read-out: Growth inhibition rate (%) Observed
  inhibition at 825 g/ha: 10%
[2]; Schoenoplectiella juncoides, soil, 240 h, 16.5 g/a, 2.3 to 2.6 leaf stage, 10 days after application, read-out: Growth inhibition rate (%) Observed
  inhibition at 1650 g/ha: 13%
[2]; Schoenoplectiella juncoides, soil, 504 h, 7.5 g/a, 3.8 to 4.2 leaf stage, 21 days after application, Test Example 61, read-out: Growth inhibition rate (%) Observed
  inhibition at 750 g/ha: 98%

## COc1cc(OC)nc(NC(=O)NS(=O)(=O)c2cccnc2C(O)C(C)F)n1 (stereo not shown) [Compound A1]
[1]; 0.083 g/a, 1.0 to 3.0 leaf stage, 21 days after application
  Growth inhibition rate (%) Observed: 83%
[1]; 0.083 g/a, 2.8 to 3.2 leaf stage, 19 days after application, Test Examples 62-65
  Growth inhibition rate (%) Observed: 55%
[1]; 0.083 g/a, 2.8 to 3.2 leaf stage, 21 days after application, Test Examples 39-43
  Growth inhibition rate (%) Observed: 57%
[1]; 0.083 g/a, 2.8 to 3.4 leaf stage, 14 days after application, Test Examples 66-72
  Growth inhibition rate (%) Observed: 40%
[1]; 0.083 g/a, 3.0 to 3.3 leaf stage, 21 days after application
  Growth inhibition rate (%) Observed: 43%
[1]; 0.11 g/a, 1.0 to 3.0 leaf stage, 21 days after application
  Growth inhibition rate (%) Observed: 97%
[1]; 0.11 g/a, 2.8 to 3.2 leaf stage, 19 days after application, Test Examples 62-65
  Growth inhibition rate (%) Observed: 93%
[1]; 0.11 g/a, 2.8 to 3.2 leaf stage, 21 days after application, Test Examples 39-43
  Growth inhibition rate (%) Observed: 67%
[1]; 0.11 g/a, 2.8 to 3.4 leaf stage, 14 days after application, Test Examples 66-72
  Growth inhibition rate (%) Observed: 53%
[1]; 0.11 g/a, 3.0 to 3.3 leaf stage, 21 days after application
  Growth inhibition rate (%) Observed: 60%
[1]; 0.165 g/a, 1.0 to 3.0 leaf stage, 21 days after application
  Growth inhibition rate (%) Observed: 98%
[1]; 0.165 g/a, 2.8 to 3.2 leaf stage, 19 days after application, Test Examples 62-65
  Growth inhibition rate (%) Observed: 94%
[1]; 0.165 g/a, 2.8 to 3.2 leaf stage, 21 days after application, Test Examples 39-43
  Growth inhibition rate (%) Observed: 78%
[1]; 0.165 g/a, 2.8 to 3.4 leaf stage, 14 days after application, Test Examples 66-72
  Growth inhibition rate (%) Observed: 70%
[1]; 0.165 g/a, 3.0 to 3.3 leaf stage, 21 days after application
  Growth inhibition rate (%) Observed: 75%
[2]; 0.11 g/a, 3.8 to 4.2 leaf stage, 21 days after application, Test Example 61
  Growth inhibition rate (%) Observed: 65%

## CCOC(=O)COc1ccc(Cl)cc1C [Compound C2, MCP ethyl]
[2]; [3]
  Growth inhibition rate (%) Observed: 13%
[2]; [4]
  Growth inhibition rate (%) Observed: 23%
[2]; [5]
  Growth inhibition rate (%) Observed: 20%
[2]; [6]
  Growth inhibition rate (%) Observed: 35%
[2]; [7]
  Growth inhibition rate (%) Observed: 45%
[2]; [8]
  Growth inhibition rate (%) Observed: 68%

## CCOC(=O)COc1ccc(Cl)cc1Cl [Compound C6, 2,4-D ethyl]
[2]; [3]
  Growth inhibition rate (%) Observed: 23%
[2]; [4]
  Growth inhibition rate (%) Observed: 33%
[2]; [5]
  Growth inhibition rate (%) Observed: 20%
[2]; [6]
  Growth inhibition rate (%) Observed: 53%
[2]; [7]
  Growth inhibition rate (%) Observed: 45%
[2]; [8]
  Growth inhibition rate (%) Observed: 68%
